Like-named read-outs stand apart in the source and are kept apart here.
Legend:
[1] = In vitro metabolism: disappearance of parent compound in dog liver microsomes; assay type: in vitro ADME; settings: 5 uM compound, 30 minutes 37° C.
How it was run: (§1)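 Microsomes from human, rat (male, female), dog and monkey liver incubated with 5 uM compound, 0.5 mg/ml protein and 2 mM NADPH in 50 mM K phosphate, pH 7.4, for 30 min at 37° C. Reaction stopped with acetonitrile; parent compound remaining measured by LC-MS.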

rat GnRH receptor = molecular target: T1, rat GnRH receptor (Rattus norvegicus, UniProt P30969); test: Radioligand binding: inhibition of 125I-GnRH-A binding to rat GnRH receptor (rat pituitary membranes); settings: read-out: Ki (nM), Inhibition Binding of 125I-GnRH-A to GnRH Receptors
T1 construct: or rat pituitaries (Pel Freez Biologicals, Rogers, Ark.) were homogenized; tissue Pel Freez Biologicals; host or cells: rat pituitaries (membrane preparation)
T1 sequence (P30969 1-327): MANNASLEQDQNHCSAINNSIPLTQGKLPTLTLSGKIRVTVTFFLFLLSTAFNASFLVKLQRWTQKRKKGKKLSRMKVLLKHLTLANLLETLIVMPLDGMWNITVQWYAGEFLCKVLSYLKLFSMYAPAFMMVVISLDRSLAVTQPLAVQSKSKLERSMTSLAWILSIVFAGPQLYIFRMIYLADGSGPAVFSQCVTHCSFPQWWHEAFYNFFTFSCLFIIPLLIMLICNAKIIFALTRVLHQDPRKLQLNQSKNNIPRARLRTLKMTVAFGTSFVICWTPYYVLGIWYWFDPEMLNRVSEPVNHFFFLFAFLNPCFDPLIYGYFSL
How it was run: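 Membranes from rat pituitaries, or HEK 293 cells stably expressing mouse or human receptor, incubated 1 hour at room temperature with ~0.04-0.06 nM radioligand (HEPES pH 7.4, EDTA, MgCl2, BSA) and competitor at 0.1-10,000 nM. Bound ligand collected by GF/C filtration and counted; Ki derived from IC50 by Cheng-Prusoff.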

[2] = In vitro metabolism: disappearance of parent compound in monkey liver microsomes; assay type: in vitro ADME; settings: 5 uM compound, 30 minutes 37° C.
How it was run: as §1

[3] = Pharmacokinetics in rats (jugular vein cannula, plasma LC-MS); assay type: in vivo, Rat; settings: for Cmax / half-life / Tmax: rat, plasma, po
Method: Rats (male or female, 200-225 g) were prepared with indwelling jugular vein cannula as described by Harms et al., Applied Physiol. 36:391-398 (1974), and allowed to recover overnight with free access to the standard vivarium chow and water. […] […] The blood samples were withdrawn at specific times, plasma was immediately separated and compound extracted with ethyl acetate. The samples were analyzed by LC-MS using 30-90% gradient of ACN in 50 mM ammonium acetate.
The pharmacokinetic parameters were calculated using WinNonlin software (Scientific Consulting Inc.). The bioavailability was calculated as AUCp.o./AUCi.v., where AUCp.o. and AUC i.v. are areas under the plasma concentration-time curve after oral and i.v. administration, respectively.

[4] = In vitro metabolism: disappearance of parent compound in human liver microsomes; assay type: in vitro ADME; settings: 5 uM compound, 0.5 mg/ml protein, 2 mM NADPH, 30 minutes 37° C.
How it was run: as §1

[5] = female rat, 10 mg/kg as 5 mg/ml solution in 10% DMSO, 10% cremophor, 80% saline (footnote 5)
[6] = female, 10 mg/kg, female rat, 10 mg/kg as 5 mg/ml solution in 10% DMSO, 10% cremophor, 80% saline (footnote 5), read-out: FR Cmax
[7] = female, 10 mg/kg, female rat, 10 mg/kg as 5 mg/ml solution in 10% DMSO, 10% cremophor, 80% saline (footnote 5), read-out: FR T1/2 hr (converted)
[8] = female, 10 mg/kg, female rat, 10 mg/kg as 5 mg/ml solution in 10% DMSO, 10% cremophor, 80% saline (footnote 5), read-out: FR Tmax hr

Dog % rem. 30′ [1] [%] | Ki (rat GnRH receptor) [nM] | Monkey % rem. [2] [%] | Human % rem. 30′ [4] [%] | FR Fp.o. [3, 5] [%^5] | Cmax [3, 6] [nM] | half-life [3, 7] [h] | Tmax [3, 8] [h] | Compound | further results
22 | 3.8 | 0 | 60 |  |  |  |  | COc1nc(OC)c(NC(=O)c2ccc(Cc3cc4c(cc3C)C(C)(C)OC4(C)C)o2)c(OC)n1 [Example A1, 5-(1,1,3,3,6-Pentamethyl-1,3-dihydro-isobenzofuran-5-ylmethyl)-furan-2-carboxylic Acid (2,4,6-trimethoxy-pyrimidin-5-yl)-amide] | FR Fp.o. ([3]; female rat, 10 mg/kg as 5 mg/ml solution in 10% DMSO 20% Labrasol, 70% saline (footnote 4)): 37%^4; Cmax ([3]; female, 10 mg/kg, female rat, 10 mg/kg as 5 mg/ml solution in 10% DMSO 20% Labrasol, 70% saline (footnote 4), read-out: FR Cmax): 1400 nM; half-life ([3]; female, 10 mg/kg, female rat, 10 mg/kg as 5 mg/ml solution in 10% DMSO 20% Labrasol, 70% saline (footnote 4), read-out: FR T1/2 hr (converted)): 5.1 h; Tmax ([3]; female, 10 mg/kg, female rat, 10 mg/kg as 5 mg/ml solution in 10% DMSO 20% Labrasol, 70% saline (footnote 4), read-out: FR Tmax hr): 1 h; MR Fp.o. ([3]; male rat, 10 mg/kg as 5 mg/ml solution in 10% DMSO, 20% Labrasol, 70% saline (footnote 1)): 6%^1; Cmax ([3]; male, 10 mg/kg, male rat, 10 mg/kg as 5 mg/ml solution in 10% DMSO, 20% Labrasol, 70% saline (footnote 1), read-out: MR Cmax): 100 nM; half-life ([3]; male, 10 mg/kg, male rat, 10 mg/kg as 5 mg/ml solution in 10% DMSO, 20% Labrasol, 70% saline (footnote 1), read-out: MR T1/2 hr (converted)): 1.5 h; Tmax ([3]; male, 10 mg/kg, male rat, 10 mg/kg as 5 mg/ml solution in 10% DMSO, 20% Labrasol, 70% saline (footnote 1), read-out: MR Tmax hr): 1 h
49 | 5.4 | 7 | 83 | 60 | 4000 | 2.2 | 1 | COc1nc(OCCO)nc(OC)c1NC(=O)c1ccc(Cc2cc3c(cc2C)C(C)(C)OC3(C)C)o1 [Example A3, 5-(1,1,3,3,6-Pentamethyl-1,3-dihydro-isobenzofuran-5-ylmethyl)-furan-2-carboxylic acid [2-(2-hydroxy-ethoxy)-4,6-dimethoxy-pyrimidin-5-yl]-amide] | Cmax ([3]; male, 20 mg/kg, male rat, 20 mg/kg as 10 mg/ml in Labrasol/H2O 1/1 (footnote 2), read-out: MR Cmax): 3200 nM; Tmax ([3]; male, 20 mg/kg, male rat, 20 mg/kg as 10 mg/ml in Labrasol/H2O 1/1 (footnote 2), read-out: MR Tmax hr): 1 h; Cmax ([3]; male, 50 mg/kg, male rat, 50 mg/kg in 50 mg/ml PG (footnote 2), read-out: Cmax): 3700 nM; Tmax ([3]; male, 50 mg/kg, male rat, 50 mg/kg in 50 mg/ml PG (footnote 2), read-out: Tmax): 0.5 h
4 | 11 | 12 | 40 |  |  |  |  | COc1nc(N(C)C)nc(OC)c1NC(=O)c1ccc(Cc2cc3c(cc2C)C(C)(C)CCC3(C)C)o1 [Example B2, 5-(3,5,5,8,8-Pentamethyl-5,6,7,8-tetrahydro-naphthalen-2-ylmethyl)-furan-2-carboxylic Acid (dimethylamino-dimethoxy-pyrimidin-5-yl)-amide] | FR Fp.o. ([3]; female rat, 6 mg/kg as 3 mg/ml solution in 6% DMSO, 6% cremophor, 88% saline (footnote 6)): 10%^6; Cmax ([3]; female, 6 mg/kg, female rat, 6 mg/kg as 3 mg/ml solution in 6% DMSO, 6% cremophor, 88% saline (footnote 6), read-out: FR Cmax): 900 nM; half-life ([3]; female, 6 mg/kg, female rat, 6 mg/kg as 3 mg/ml solution in 6% DMSO, 6% cremophor, 88% saline (footnote 6), read-out: FR T1/2 hr (converted)): 5.7 h; Tmax ([3]; female, 6 mg/kg, female rat, 6 mg/kg as 3 mg/ml solution in 6% DMSO, 6% cremophor, 88% saline (footnote 6), read-out: FR Tmax hr): 1 h
0 | 0.7 | 0 | 35 | 56 | 800 | 2 | 2 | COc1nc(OC)c(NC(=O)c2ccc(Cc3cc4c(cc3C)C(C)(C)CCC4(C)C)o2)c(OC)n1 [Example C1, 5-(3,5,5,8,8-Pentamethyl-5,6,7,8-tetrahydro-naphthalen-2-ylmethyl)-furan-2-carboxylic Acid (2,4,6-trimethoxy-pyrimidin-5-yl)-amide] | 

Reference: patent US6833372B2, “Non-peptide GnRH agents, Pharmaceutical compositions, and methods for their use” (Pfizer, Inc., priority 2002, dated 2004)
